# Results published in patent US20140127235A1, “TARGETING HK alpha FOR CONTROLLING BLOOD PRESSURE AND REGULATING ELECTROLYTE BALANCE” (UNIVERSITY OF FLORIDA RESEARCH FOUNDATION, INC., priority 2011, published 2014).
# Experiments:
# Format in all cases: in vivo, mouse
# [1] = Survival of DOCP-treated WT and HKα1,2−/− mice over 60 days; conditions: two injections of DOCP on day zero and day 57
# Excerpt: These animals all received two injections of DOCP on day zero and day 57. Four of the HKα1,2^−/− mice died at day's nine 46, 47, and 59 for an overall survival at 60 days of 57% for the HKα1,2^−/− mice whereas there were no deaths in the nine WT animals X^2 (log-rank): 4.554 (P<0.05).
# HKα2 mRNA = experiment: Real time PCR of renal HKα2 mRNA expression in DOCP-treated mice
# Excerpt: The principal mechanism of mineralocorticoid action is through modulation of target gene transcription.^15 Therefore, the next experiments evaluated the effect of DOCP on renal HKα1 and HKα2 mRNA expression. Real time quantitative PCR was used to investigate changes in steady state mRNA levels of H^+,K^+-ATPase α subunits, HKα1 and HKα2, in cortex, outer medulla, and inner medulla of control and DOCP-treated mice.
# Deficits in K^+ homeostasis have long been known to stimulate H^+,K^+-ATPase activity and HKα subunit expression. Therefore, the next experiments investigated whether the decreases in blood [K^+] observed in DOCP-treated mice were responsible for the stimulation of HKα2 mRNA expression. For this experiment, mice were fed a high K^+ diet and then left untreated (control) or given DOCP treatment. Body weight and blood electrolytes were measured eight days after treatment and kidneys were collected for analysis of HKα, and HKα2 mRNA expression by real time PCR. A high K^+ diet abrogated the effect of DOCP on body weight gain, blood [K^+], [Cl^−], and [HCO3^−] in mice (Table 3). Similarly, the stimulation of HKα, or HKα2 mRNA expression with DOCP was absent in mice fed a high K^+ diet (FIGS. 3C and 3D).
# RNA was recovered from cortex, medulla, and inner medulla with TRIzol reagent (Invitrogen). RNA was treated with DNase 1 (Ambion DNA Free) and converted to cDNA using SuperScript III (Invitrogen). For real time quantitative PCR, 20 ng cDNA was used to quantify mRNA expression with TaqMan Gene Expression (Applied Biosystems) primer/probe sets for HKα1 (Atp4a, Mm00444423_m1), HKα2 (Atp12a, Mm0131809_m1), and β-actin (Actb, Mm00607939_s1). Cycle threshold (Ct) values were normalized to β-actin, and relative expression (control set to 100%) was calculated by the ΔΔCt method.^28
# [2] = DOCP treatment of wild type, HKα1−/− and HKα1,2−/− mice: body weight, blood electrolytes, urinary and fecal electrolyte excretion
# Excerpt: In a separate study, the effect of DOCP treatment of body weight change, blood electrolytes, and urinary and fecal electrolyte excretion was examined in wild type, HKα1^−/−, and HKα1,2^−/− mice on a normal diet.
# In the context of whole animal physiology, it is important to examine the overall electrolyte balance as the […] of urinary and fecal excretion subtracted from the intake of that electrolyte.
# Mice were fed normal lab chow, given free access to water, and given an i.m. injection of 1.7 mg DOCP (Percorten V, Novartis Pharmaceuticals). For perfusion and expression studies, mice were sacrificed with Na^+ pentobarbital (i.p. 120 mg/kg) followed by cervical dislocation. For time course experiments, another group of animals were anesthetized with 3-4% isoflurane and aortic blood was collected into a heparinized syringe for immediate analysis of electrolytes and blood gases (Nova pHOx Plus analyzer, Nova Biomedical). For high K^+ diet studies, mice were given a normal, powdered diet (TD99131, Teklad) supplemented with KCl to equal 5% K^+ which was then made as a gel. Half of the mice were treated with DOCP. Blood and tissues were collected as in the time course experiments. For urinalysis experiments, mice were housed in metabolic cages for thirteen days and fed a normal gel diet with free access to a water bottle. On day five, mice were treated with DOCP as above. Urine and feces were collected daily. Urine electrolytes were measured on a clinical analyzer (Nova 16 analyzer, Nova Biomedical) and fecal electrolytes were measured on a digital flame photometer (Model 2655-00, Cole-Parmer).
# [3] = Radiotelemetry (blood pressure, heart rate, locomotor activity) in WT and HKα1,2−/− mice, control and DOCP; conditions: for Mean arterial pressures / Heart rate / Locomotor activity: DOCP
# Excerpt: Age matched, male C56BL/6 WT and C56BL/6 HKα1,2^−/− mice were anesthetized using 5% isoflurane, and radiotelemetry transmitters (PA-C10, Data Sciences, St. Paul, Minn.) were implanted under sterile conditions (1-3% continuous isoflurane). The catheter was placed in the left carotid artery and the housing of the transmitter was implanted subcutaneously on the animal's right flank. Mice were allowed to recover for a period of at least 14 days prior to recordings. These mice were not subject to metabolic cage experiments or blood and tissue collections. Mice were fed a normal lab chow (Teklad 2018, 0.2% Na and 0.5% K) and allowed free access to water. DOCP treated mice received an intramuscular injection of 1.7 mg DOCP (Percorten V, Novartis Pharmaceuticals) and were fed the normal gel diet described previously supplemented with NaCl to equal 0.4% Na^+ ad libitum for 8 days with free access to water. Radiotelemetry recordings were performed one week before and one week after DOCP treatment. At the time of the control recording, mice ranged in age from 15-25 weeks. Recording were made for 2 minutes at the beginning of each hour or for 2 minutes every 10 minutes for 48 hours. Moving averages were calculated for each hour. Comparisons of systolic BP, HR, and LA were made for the main effects 1) DOCP treated versus untreated and 2) WT versus HKα1,2^−/− mice. Differences between the daytime (06:00-17:59) and nighttime (18:00-05:59) values for these parameters were also compared.
# Radiotelemetry was performed in order to assess genotypic differences in systolic BP, HR and LM during normal and DOCP treatment. Example 48 hr tracings of systolic BP, HR, and LA comparing WT and HKα1,2^−/− during normal and DOCP treatment are shown in FIG. 13.
compound,measurement,setting,value
"CC(C)(C)C(=O)OCC(=O)[C@H]1CC[C@H]2[C@@H]3CCC4=CC(=O)CC[C@]4(C)[C@H]3CC[C@]12C [DOCP, desoxycorticosterone pivalate]",overall survival at 60 days,"[1]; HKα1,2−/− mice (seven)",57%
same,deaths over 60 days,[1]; nine WT mice,no deaths
same,HKα2 mRNA expression,"HKα2 mRNA; cortex, eight days after DOCP, normal diet",did not affect
same,"HKα2 mRNA levels, increase","HKα2 mRNA; inner medulla, eight days after DOCP, normal diet",as much as five-fold
same,stimulation of HKα1 or HKα2 mRNA expression with DOCP,HKα2 mRNA; mice fed a high K+ diet,absent
same,"HKα2 mRNA levels, increase","HKα2 mRNA; outer medulla, eight days after DOCP, normal diet",more than two-fold
same,effect of DOCP to decrease blood [Cl−] and increase blood [HCO3−],"[2]; HKα1,2−/− mice, day eight",eliminated
same,"K+ retention, less than wild type mice with DOCP treatment","[2]; HKα1,2−/− mice, day eight, overall balance",~40%
same,Overall Na+ retention versus wild type or HKα1−/− mice,"[2]; HKα1,2−/− mice, eighth day of DOCP treatment",significantly less
same,increase of fecal K+ loss with DOCP treatment,"[2]; HKα1−/− and HKα1,2−/− mice, versus control period",~50%
same,Urine volume by the end of DOCP treatment,[2]; HKα1−/− mice,considerably decreased
same,DOCP-induced body weight gain relative to wild type,"[2]; HKα1−/− mice, day eight, normal diet",augmented nearly two-fold
same,"dry stool weight, more than wild type or HKα1,2−/− mice when treated with DOCP","[2]; HKα1−/− mice, pair fed",50%
same,Urine volume by the end of DOCP treatment,"[2]; wild type and HKα1,2−/− mice",doubled
same,overall Na+ balance with DOCP treatment,[2]; wild type mice,increased
same,effect on daytime or nighttime systolic BP,"[3]; HKα1,2−/− mice",failed to significantly increase
same,Mean arterial pressures,"[3]; HKα1,2−/− mice, Daytime (Inactive)",112.7 ± 1.8 mmHg
same,Heart rate,"[3]; HKα1,2−/− mice, Daytime",554.8 ± 21.4 beats/min
same,Locomotor activity,"[3]; HKα1,2−/− mice, Daytime",3.267 ± 0.603
same,Mean arterial pressures,"[3]; HKα1,2−/− mice, Nighttime (Active)",118.5 ± 2.4 mmHg
same,Heart rate,"[3]; HKα1,2−/− mice, Nighttime",580.5 ± 20.1 beats/min
same,Locomotor activity,"[3]; HKα1,2−/− mice, Nighttime",5.410 ± 1.078
same,effect on locomotor activity (LA),"[3]; WT and HKα1,2−/− mice",did not significantly affect
same,effect on systolic BP during the day and night,[3]; WT mice,significantly increased
same,effect on HR during the night,"[3]; WT mice, DOCP treatment",significant decrease
same,Mean arterial pressures,"[3]; WT mice, Daytime (Inactive)",112.9 ± 2.3 mmHg
same,Heart rate,"[3]; WT mice, Daytime",496.7 ± 17.5 beats/min
same,Locomotor activity,"[3]; WT mice, Daytime",3.913 ± 0.407
same,Mean arterial pressures,"[3]; WT mice, Nighttime (Active)",122.5 ± 2.9 mmHg
same,Heart rate,"[3]; WT mice, Nighttime",533.5 ± 17.2 beats/min
same,Locomotor activity,"[3]; WT mice, Nighttime",7.036 ± 0.735
